Source: US20260216063A1, “METHODS OF SUPPRESSING FREE DNA AND COMPOSITIONS THEREOF” (PS Therapy, Inc., priority 2023, published 2026)

Experiments:
TNF-alpha [1] = assay: TNF-alpha ELISA in differentiated THP-1 cells infected with P. aeruginosa DNA; type: cell-based, human; settings: 6 micrograms P. aeruginosa DNA, 24 hours post infection; DNA alone 1,200
Description: 3 sets of differentiated THP-1 cells were infected with 6 micrograms of […], 6 micrograms of P. aeruginosa DNA and composition A from Table 1, above, 6 micrograms of P. aeruginosa DNA and moxifloxacin, or 6 micrograms of P. aeruginosa DNA, moxifloxacin and composition A. 24 hours post infection the cells were assayed for TNF-alpha protein levels via ELISA. Results of this study can be found in FIGS. 3A and 3B.

free DNA = assay: Free DNA binding, ethidium bromide displacement assay; settings: incubated with free DNA in a petri dish
Description: Voriconazole, moxifloxacin, composition A from Table 1, above, a combination of voriconazole and composition A and a combination of moxifloxacin and composition A were each individually incubated with free DNA in a petri dish with and without the addition of voriconazole or moxifloxacin. The percentage of free DNA bound was measured using an ethidium bromide displacement assay. See results in FIG. 1.
Compositions #1-3 from Table 1, above, were each individually incubated with free DNA in a petri dish at concentrations of 1% and 10% in PBS buffer. The percentage of free DNA bound was measured using an ethidium bromide displacement assay.

TNF-alpha [2] = assay: TNF-alpha ELISA in differentiated THP-1 cells infected with A. flavus DNA; type: cell-based, human; settings: 6 micrograms A. flavus DNA, 24 hours post infection; DNA alone 180
From the text: Tumor Necrosis Factor alpha secretion (“TNF-alpha”) is a marker for DNA-induced inflammation. See, Campbell et al., CpG-containing immunostimulatory DNA sequences elicit TNF-alpha-dependent toxicity in rodents but not in humans, 2009, J Clin Invest, 119(9), 2564-2576. 3 sets of differentiated human leukemia monocytic (“differentiated THP-1”) cells were infected with 6 micrograms of A. flavus DNA, 6 micrograms of A. flavus DNA and composition A, 6 micrograms of A. flavus DNA and voriconazole, or 6 micrograms of A. flavus DNA, voriconazole and composition A. 24 hours post infection the cells were assayed for TNF-alpha protein levels via enzyme-linked immunosorbent assays (“ELISA”). Results of this study can be found in FIGS. 2A and 2B.
6 sets of differentiated THP-1 cells were infected with 1) nothing, 2) lipofectamine™ 2000 transfectin reagent, 3) 6 micrograms of A. flavus DNA, 4) 6 micrograms of A. flavus DNA and composition #1 from Table 1, above, 5) 6 micrograms of A. flavus DNA and composition #2 from Table 1, above, 6) 6 micrograms of A. flavus DNA and composition #3 from Table 1, above. 24 hours post infection the cells were assayed for TNF-alpha protein levels via ELISA.

COc1c(N2C[C@@H]3CCCN[C@@H]3C2)c(F)cc2c(=O)c(C(=O)O)cn(C3CC3)c12 [moxifloxacin]
TNF-alpha protein levels (TNF-alpha [1]): 450 picograms per milliliter

C[C@@H](c1ncncc1F)[C@](O)(Cn1cncn1)c1ccc(F)cc1F [voriconazole]
percentage of free DNA bound (free DNA): 0% | TNF-alpha protein levels (TNF-alpha [2]): 85 picograms per milliliter
